Data set [1] concerns the target T1, human farnesoid X receptor (Homo sapiens, UniProt Q96RI1).
T1 construct: CMX-farnesoid X receptor (full length human farnesoid X receptor); expressed in transfected cells; host or cells: CV-1 African Green Monkey Kidney cells
T1 sequence (Q96RI1 1-472 isoform Q96RI1-2): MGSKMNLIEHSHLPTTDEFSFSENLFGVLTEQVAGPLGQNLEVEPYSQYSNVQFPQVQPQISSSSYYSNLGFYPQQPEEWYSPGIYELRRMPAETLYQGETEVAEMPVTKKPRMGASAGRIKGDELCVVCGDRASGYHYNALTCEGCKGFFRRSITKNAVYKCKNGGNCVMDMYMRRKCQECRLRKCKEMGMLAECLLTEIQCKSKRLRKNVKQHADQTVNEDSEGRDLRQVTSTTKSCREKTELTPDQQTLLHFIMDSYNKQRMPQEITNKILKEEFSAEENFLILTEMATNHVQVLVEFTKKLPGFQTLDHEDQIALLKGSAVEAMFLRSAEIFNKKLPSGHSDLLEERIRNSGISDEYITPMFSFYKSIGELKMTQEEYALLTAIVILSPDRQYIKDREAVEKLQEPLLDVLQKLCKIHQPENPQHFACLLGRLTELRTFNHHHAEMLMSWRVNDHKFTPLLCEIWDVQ
T1 sequence (P19793 1-462 partner): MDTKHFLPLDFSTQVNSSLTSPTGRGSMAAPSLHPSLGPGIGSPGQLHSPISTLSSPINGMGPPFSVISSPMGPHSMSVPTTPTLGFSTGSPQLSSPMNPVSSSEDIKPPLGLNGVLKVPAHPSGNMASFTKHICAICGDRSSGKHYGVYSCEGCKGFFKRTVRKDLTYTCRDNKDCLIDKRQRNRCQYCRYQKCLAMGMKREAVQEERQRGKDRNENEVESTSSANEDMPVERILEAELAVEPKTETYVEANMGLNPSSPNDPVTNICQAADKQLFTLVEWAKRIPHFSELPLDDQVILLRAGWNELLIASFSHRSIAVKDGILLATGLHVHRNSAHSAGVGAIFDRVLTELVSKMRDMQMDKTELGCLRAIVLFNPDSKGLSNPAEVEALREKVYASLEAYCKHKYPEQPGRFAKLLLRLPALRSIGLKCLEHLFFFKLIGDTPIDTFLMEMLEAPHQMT
Kind of data set: FXR in vitro assays (farnesoid X receptor/ECREx7 co-transfection assay, TR-FRET assay), Table I. Format: cell-based. As to conditions: for EC50: agonist activity, one or more of the in vitro assays, read-out: EC50; for Emax: read-out: % Efficacy. Summed up:
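CV-1 monkey kidney cells transfected for an FXR/ECREx7 luciferase co-transfection reporter; luciferase read 18-20 h later in lysates. 8-point dose-response at ½-log spacing, 4 wells per point; EC50/IC50 from four-parameter Hill fit, averaged over at least 3 independent experiments.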
(Time-resolved FRET reads energy transfer from a long-lived donor to a nearby acceptor.)

A short description of data set [2]: Kinetic solubility assay. Here is the method: The kinetic solubility of test compounds in buffer was evaluated using a 96 well filtration plate format. A 500 μM assay solution in PBS, pH7.4 (or other assay buffer, as needed) was generated form a DMSO stock solution (up to 10 mM). Samples were transferred to a 96 Millipore MultiScreen HTS 96-well Filter plate (Cat# MSSLBPC10) mixed by shaking for 1.5 hours and processed by filtration prior to quantitation by HPLC-UV. Amiodarone and testosterone were used as reference controls.

[3] abbreviates: pH 7.4, aqueous buffer, kinetic from dmso stock.

Experimental findings from patent US20090203577A1 (EXELIXIS, INC., priority 2005, published 2009) are described below.

For orientation: EC50 means the midpoint of the concentration-response curve. In general, kinetic solubility refers to solubility judged after dilution from a stock solution rather than from solid.

≈ marks a conversion by molar mass, not a printed value. A value given as a limit tells only on which side of the number the result lay.

In the case of “1-methyethyl 1,1-dimethyl- 3-({4-[4-(trifluoromethyl)- 1H-pyrazol-1- yl]phenyl}carbonyl)-1,2,3,6- tetrahydroazepino[4,5- b]indole-5-carboxylate [Example 158]”, in data set [1], the “% Efficacy” value is recorded as “A (key: A=>100%; B=80-100%; C=60-80%; D=40-60%; E=<40%)”. Moreover, the “Kinetic Solubility μM” value in data set [2] (500 μM assay solution in PBS, pH7.4 from DMSO stock, filtration, HPLC-UV) is “C (C=0.1-1.0 μM)”.
Turning to `CC(C)OC(=O)C1=CN(C(=O)C2CCN(C)CC2)CC(C)(C)c2c1[nH]c1ccccc21` [Example 6, 1-methylethyl 1,1-dimethyl-3-[(1-methylpiperidin-4-yl)carbonyl]-1,2,3,6-tetrahydroazepino[4,5-b]indole-5-carboxylate], in data set [1], the EC50 was in the range of 1000 to 10000 nM and the Emax was greater than 100%. Further, the kinetic solubility at 1.5 h in data set [2] (setting [3]) was 0.1 to 1 µM (≈ 0.0424 to 0.424 µg/mL).
Take `CC(C)OC(=O)C1=CN(C(=O)N2CCN(C)CC2)CC(C)(C)c2c1[nH]c1ccccc21` [Example 16]: in data set [1], the EC50 lay within 100 to 1000 nM and the Emax was greater than 100%. This compound also displayed a kinetic solubility at 1.5 h in data set [2] (setting [3]) of 0.1 to 1 µM (≈ 0.0425 to 0.425 µg/mL).
For `CCC(=O)N1C=C(C(=O)OC(C)C)c2[nH]c3ccccc3c2C(C)(C)C1` [Example 19], in that order: 100 to 1000 nM, greater than 100% and greater than 10 µM.
With `CCCNC(=O)N1C=C(C(=O)OC(C)C)c2[nH]c3ccccc3c2C(C)(C)C1` [Example 23, 1-methylethyl 1,1-dimethyl-3-[(propylamino)carbonyl]-1,2,3,6-tetrahydroazepino[4,5-b]indole-5-carboxylate], in data set [1], the EC50 lay in the range of 100 to 1000 nM and the Emax is greater than 100%. Besides, in data set [2] (setting [3]), the kinetic solubility at 1.5 h lay within 1 to 10 µM (≈ 0.383 to 3.83 µg/mL).
With `CC(C)OC(=O)C1=CN(C(=O)c2cccc(OCCN3CCCCC3)c2)CC(C)(C)c2c1[nH]c1ccccc21` [Example 159, 1-methylethyl 1,1-dimethyl-3-({3-[(2-piperidin-1-ylethyl)oxy]phenyl}carbonyl)-1,2,3,6-tetrahydroazepino[4,5-b]indole-5-carboxylate], in data set [2] (setting [3]), the solubility (kinetic) at 1.5 h was in the range of 1 to 10 µM (≈ 0.53 to 5.3 µg/mL).
For `CC(C)OC(=O)C1=CN(C(=O)c2cccc(CN3CCN(S(=O)(=O)c4ccc(F)cc4)CC3)c2)CC(C)(C)c2c1[nH]c1ccccc21` [Example 168, 1-methylethyl 3-{[3-({4-[(4-fluorophenyl)sulfonyl]piper-azin-1-yl}methyl)phenyl]carbonyl}-1,1-dimethyl-1,2,3,6-tetrahydroazepino[4,5-b]indole-5-carboxylate], in data set [1], the EC50 was in the range of 100 to 1000 nM and the Emax is greater than 100%.
`CCS(=O)(=O)N1CCN(Cc2cccc(C(=O)N3C=C(C(=O)OC(C)C)c4[nH]c5ccccc5c4C(C)(C)C3)c2)CC1` [Example 172, 1-methylethyl 3-[(3-{[4-(ethylsulfonyl)piperazin-1-yl]methyl}phenyl)carbonyl]-1,1-dimethyl-1,2,3,6-tetrahydroazepino[4,5-b]indole-5-carboxylate]: in data set [1], the EC50 fell in the range of 100 to 1000 nM and the Emax was greater than 100%.
As for `CC(C)OC(=O)C1=CN(C(=O)c2cccc(CN3CCN(C(=O)C4CC4)CC3)c2)CC(C)(C)c2c1[nH]c1ccccc21` [Example 173, 1-methylethyl 3-[(3-{[4-(cyclopropylcarbonyl)piper-azin-1-yl]methyl}phenyl)carbonyl]-1,1-dimethyl-1,2,3,6-tetrahydroazepino[4,5-b]indole-5-carboxylate], in data set [1], the EC50 fell in the range of 100 to 1000 nM and the Emax is greater than 100%.
On the same counts, the results for `CC(C)OC(=O)C1=CN(C(=O)c2cccc(CN3CCN(C(=O)C(C)C)CC3)c2)CC(C)(C)c2c1[nH]c1ccccc21` [Example 174, 1-methylethyl 1,1-dimethyl-3-[(3-{[4-(2-methylpropanoyl)piperazin-1-yl]methyl}phenyl)carbonyl]-1,2,3,6-tetrahydroazepino[4,5-b]indole-5-carboxylate] are 100 to 1000 nM and greater than 100%.
For `CC(C)OC(=O)C1=CN(C(=O)c2cccc(CN3CCN(C(=O)c4ccccc4)CC3)c2)CC(C)(C)c2c1[nH]c1ccccc21` [Example 175, 1-methylethyl 1,1-dimethyl-3-[(3-{[4-(phenylcarbonyl)piperazin-1-yl]methyl}phenyl)carbonyl]-1,2,3,6-tetrahydroazepino[4,5-b]indole-5-carboxylate], in that order: 100 to 1000 nM and greater than 100%.
Take `CC(C)OC(=O)C1=CN(C(=O)c2cccc(CN3CCCCCCC3)c2)CC(C)(C)c2c1[nH]c1ccccc21` [Example 176, 1-methylethyl 3-{[3-(azocan-1-ylmethyl)phenyl]carbonyl}-1,1-dimethyl-1,2,3,6-tetrahydroazepino[4,5-b]indole-5-carboxylate]: in data set [1], the EC50 was in the range of 100 to 1000 nM and the Emax is greater than 100%.
Take `CC(C)OC(=O)C1=CN(C(=O)c2cccc(CN3CCNCC3)c2)CC(C)(C)c2c1[nH]c1ccccc21` [Example 178, 1-methylethyl 1,1-dimethyl-3-{[3-(piperazin-1-ylmethyl)phenyl]carbonyl}-1,2,3,6-tetrahydroazepino[4,5-b]indole-5-carboxylate]: the EC50 in data set [1] was greater than 10000 nM.
Regarding `CC(C)OC(=O)C1=CN(C(=O)c2cc(F)c(F)c(OCCN3CCOCC3)c2)CC(C)(C)c2c1[nH]c1ccccc21` [Example 179, 1-methylethyl 3-({3,4-difluoro-5-[(2-morpholin-4-ylethyl)oxy]phenyl}carbonyl)-1,1-dimethyl-1,2,3,6-tetrahydroazepino[4,5-b]indole-5-carboxylate], in data set [1], the EC50 is 10 to 100 nM and the Emax was greater than 100%.
On the same counts, the results for `CC(C)OC(=O)C1=CN(C(=O)c2cc(F)c(F)c(OCCN3CCCCC3)c2)CC(C)(C)c2c1[nH]c1ccccc21` [Example 180, 1-methylethyl 3-({3,4-difluoro-5-[(2-piperidin-1-ylethyl)oxy]phenyl}carbonyl)-1,1-dimethyl-1,2,3,6-tetrahydroazepino[4,5-b]indole-5-carboxylate] are 10 to 100 nM and greater than 100%.
`CC(C)OC(=O)C1=CN(C(=O)c2ccc(OCCN3CCOCC3)cc2)CC(C)(C)c2c1[nH]c1ccccc21` [Example 181, 1-methylethyl 1,1-dimethyl-3-({4-[(2-morpholin-4-ylethyl)oxy]phenyl}carbonyl)-1,2,3,6-tetrahydroazepino[4,5-b]indole-5-carboxylate] had a kinetic solubility at 1.5 h in data set [2] (setting [3]) of 1 to 10 µM (≈ 0.532 to 5.32 µg/mL).
In the case of `CC(C)OC(=O)C1=CN(C(=O)c2cccc(CN3CCN(C(=O)Nc4ccccc4)CC3)c2)CC(C)(C)c2c1[nH]c1ccccc21` [Example 184], in data set [1], the EC50 was 10 to 100 nM and the Emax is greater than 100%.
On to `CCN(CC)CCCOc1cccc(C(=O)N2C=C(C(=O)OC(C)C)c3[nH]c4ccccc4c3C(C)(C)C2)c1` [Example 188, 1-methylethyl 3-[(3-{[3-(diethylamino)propyl]oxy}phenyl)carbonyl]-1,1-dimethyl-1,2,3,6-tetrahydroazepino[4,5-b]indole-5-carboxylate], for which, in data set [1], the EC50 fell in the range of 1000 to 10000 nM and the Emax is greater than 100%.
For `CC(COC(=O)c1ccc(F)c(F)c1)OC(=O)C1=CN(C(=O)c2ccc(F)c(F)c2)CC(C)(C)c2c1[nH]c1ccccc21` (stereo not drawn) [Example 194, 2-{[(3,4-difluorophenyl)carbonyl]oxy}-1-methylethyl 3-[(3,4-difluorophenyl)carbonyl]-1,1-dimethyl-1,2,3,6-tetrahydroazepino[4,5-b]indole-5-carboxylate], in data set [1], the EC50 lay in the range of 10 to 100 nM and the Emax is greater than 100%.
Regarding `CC1(C)CN(C(=O)c2ccc(F)c(F)c2)C=C(C(=O)OCCOCc2ccccc2)c2[nH]c3ccccc3c21` [Example 195, 2-[(phenylmethyl)oxy]ethyl 3-[(3,4-difluorophenyl)carbonyl]-1,1-dimethyl-1,2,3,6-tetrahydroazepino[4,5-b]indole-5-carboxylate], in data set [1], the 50% effective concentration (EC50) fell in the range of 100 to 1000 nM and the Emax was greater than 100%.
`C[C@]12CC[C@H]3[C@@H](CCC4=CC(=O)CC[C@@]43C)[C@@H]1CC[C@@H]2O` [testosterone, reference compound] came in with a solubility (kinetic) in data set [2] (setting [3]) of roughly 330 µM (≈ 95.2 µg/mL).
